Assay results taken from patent US8273705B2, “Conversion of apoptotic proteins” (The Burnham Institute, priority 2002, dated 2012).
d = 2'-deoxy (DNA); r = 2'-OH (RNA)

Experiments:
[1] = test system: peripheral blood lymphocytes (PBLs); experiment: Apoptosis of peripheral blood lymphocytes; type: cell-based, human; settings: oligonucleotide transfected
Experimental: Isolation and transfection of human peripheral blood lymphocytes (PBLs)—Leukocyte-enriched buffy coats from San Diego Blood Bank were diluted with 2 volumes of PBS, and PBLs were isolated by centrifuge on Ficoll-paque™ Plus (Amersham Pharmacia biotech). The mononuclear cells were cultured in RPMI containing 10% FBS and 20 μM Hepes. Freshly isolated cells (10^7 cells per transfection) were washed once with PBS containing 0.5% BSA and supernatant was completely discarded so that no residual PBS/BSA covers the pellet. The cells were resuspended in 100 μl of the human T Cell Nucleofector™ solution (Amexa biosystems) and very gently mixed with 1-4 μg DNA in 5 μl. The cell suspension was transferred into a cuvette supplied by Amexa biosystems and electroporated using U-14 program of Nucleofector™ device. The cells were removed from the cuvette quickly by adding 500 μl of the pre-warmed RPMI medium containing 10% FBS and 20 μM Hepes and transferred into 12 well plates containing 1.5 ml of pre-warmed culture medium.

H460 lung cancer cells = experiment: TR3 induction and apoptosis in H460 lung cancer cells; type: cell-based
Experimental: (§1) In addition to TPA, AHPN and its structural analogs also induce TR3 expression and TR3-dependent apoptosis in an epithelial cancer cell line. […] Lysates were then incubated with anti-Bcl-2 antibody. Immunoblotting of immunoprecipitates was conducted using anti-TR3 and anti-Bcl-2 antibodies.
BH3-only proteins exert their apoptotic effects through either Bax or Bak. The involvement of Bax and Bak in Bcl-2-dependent apoptosis induced by TR3 was therefore examined.
To determine whether Bak, which was highly expressed in H460 cells, played a role in Bcl-2-dependent apoptosis induced by TR3, the effects of Bak siRNA transfection was examined. […] Thus, Bcl-2-dependent apoptosis induced by TR3 depends on multidomain pro-apoptotic Bcl-2-family proteins such as Bak.

MGC80-3 cells = experiment: TR3-dependent apoptosis in MGC80-3 cells with Bcl-2 siRNA; type: cell-based; settings: control GFP-siRNA-transfected MGC80-3 cells
Experimental: Bcl-2 siRNAs and antisense oligonucleotides—The target siRNA SMARTPOOLs® for Bcl-2 and Bak and the siRNA oligonucleotide for TR3 (5′-CAG UCC AGC CAU GCU CCU dTdT) (SEQ ID NO: 2) were purchased from Dharmacon Research Inc. Target or control siRNA were transfected at a final concentration of 200 nM into cells at 40% confluency using Oligofectamine reagent (Invitrogen) according to the manufacturer's recommendations. After 48 h, cells were analyzed. Bcl-2 antisense oligonucleotide targeting Bcl-2 and negative control oligonucleotides were obtained from Calbiochem. They (2.5 μM) were transfected into cells at 60% confluency for 36 h before analysis.
The effect of inhibiting endogenous Bcl-2 expression on the TR3-dependent apoptosis in MGC80-3 cells was next analyzed. […] However, 3-Cl-AHPC-induced apoptosis was suppressed by more than half (about 60%) in Bcl-2 siRNA-transfected cells. Similar results were obtained in H460 lung cancer cells. […] Thus, Bcl-2 can manifest a pro-apoptotic phenotype in settings where TR3 is expressed and targets to mitochondria.

[2] = test system: MGC80-3 gastric cancer cells; experiment: TR3 mitochondrial targeting in MGC80-3 gastric cancer cells; type: cell-based; settings: MGC80-3 cells treated with 3-Cl-AHPC
Experimental: C. Small interfering RNA (siRNA)—To complement these gene transfection experiments, a small interfering (si)RNA approach was used to determine the effect of suppressing endogenous Bcl-2 expression on TR3 mitochondrial targeting. […] After 48 h, lysates were prepared and assayed by immunoblotting using anti-Bcl-2 and anti-β-actin antibodies.

TR3/Bcl-2 interaction = experiment: Co-IP of TR3 and Bcl-2 in H460 lung cancer cells; type: cell-based; settings: 10^−6 M for 3 hours
Experimental: as §1

cos-7 cells [3] = experiment: TCTP/Bcl-XL co-localization in cos-7 cells; type: cell-based; settings: cos-7, GFP-TCTP and RFP-Bcl-XL
Source text: Images were photographed with a confocal microscope.

Bcl-XL = target: T1, Bcl-XL (Homo sapiens, UniProt Q07817); experiment: TCTP/Bcl-XL interaction (yeast two-hybrid, immunoprecipitation in HEK293T); type: binding
T1 construct: expressed in transfected cells; host or cells: HEK293T
T1 sequence (Q07817 whole entry): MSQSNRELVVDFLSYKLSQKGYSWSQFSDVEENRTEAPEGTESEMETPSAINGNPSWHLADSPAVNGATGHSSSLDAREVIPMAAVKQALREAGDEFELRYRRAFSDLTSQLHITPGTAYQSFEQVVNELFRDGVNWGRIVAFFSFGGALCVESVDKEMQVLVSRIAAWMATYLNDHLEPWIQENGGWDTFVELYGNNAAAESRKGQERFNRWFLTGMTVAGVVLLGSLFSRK
Source text: Bcl-XL cDNA was constructed into the pGilda yeast two-hybrid vector. Using pGilda-Bcl-XL as bait, a human testis cDNA library was used in yeast two-hybrid screening to screen for potential Bcl-XL interacting proteins. pGilda-Bcl-XL and a reporter plasmid pSH18-34 were co-transfected into EGY48 yeast cells. The transfectant yeast cells were then transfected in large scale with yeast two-hybrid library cDNA plasmids. Positive clones were identified through selection in Leucine-deficient media. A total of 95 positive colonies were identified. These positive clones were further examined for a second reporter expression by β-gal filter assays. Among these clones, 29 of them tested positive. These clones were further examined by mating assays to confirm the interaction with Bcl-XL. Ten positive clones were isolated and sequenced to reveal their identity. Two of them encode cDNAs identical to human Translationally-Controlled Tumor Protein (TCTP).
TCTP is a calcium-binding protein with no previous identified role in apoptosis regulation. […] Cell lysates were immunoprecipitated with polyclonal anti-GFP antibody. The immunoprecipitates or the lysates were blotted with anti-HA or anti-GFP antibodies, respectively.

cos-7 cells [4] = experiment: TCTP-induced apoptosis (DAPI) in cos-7 cells; type: cell-based
Experimental: Cells were fixed and stained with DAPI 48 hours after transfection (n≧200 total cells evaluated) and the percentage of apoptotic cells was calculated (mean±SD, n=3) (FIG. 7).

[5] = test system: primary dopaminergic neurons; experiment: TR3 localization in primary dopaminergic neurons; type: cell-based, rat; settings: 100 μM, one hour
Experimental: To further investigate TR3 targeting of mitochondria, rat primary neurons were treated with the dopaminergic neurotoxin 1-methyl-4-phenyl-1,2,3,6-tetrahydropyridine (MPTP). MPTP induces Parkinson's disease in animals. […] Neurons were identified by staining with neuron marker. TR3 and mitochondria (Hsp60) were visualized using confocal microscopy. […] TR3 was found only in the nucleus of non-treated neurons. Thus, TR3 mitochondrial localization plays a role in mediating the effect of dopaminergic neurotoxin in neurons.

293T cells = experiment: DAPI apoptosis assay in 293T cells; type: cell-based, human; settings: 293T, transfected alone, 36 h, DAPI
Experimental: Apoptosis assays—For nuclear morphological change analysis, cells were trypsinized, washed with PBS, fixed with 3.7% paraformaldehyde, and stained with DAPI (4,6-diamidino-2-phenylindole) (50 μg/ml) to visualize the nuclei by UV-microscopy. The percentages of apoptotic cells were determined by counting 300 GFP-positive cells, scoring cells having nuclear fragmentation and/or chromatin condensation.
DAPI staining was used to study the apoptotic effect of TR3/Bcl-2 interaction. 293T cells were transfected with GFP-TR3/ΔDBD alone or together with Bcl-2. After 36 h, nuclei were stained by DAPI and nuclear fragmentation and chromatin condensation were identified. Cells were also stained with anti-Bcl-2 antibody, followed by TRITC-conjugated secondary antibody (Sigma). Bcl-2 and GFP-ΔDBD expression and nuclear morphology were visualized by fluorescence microscopy, and the two images were overlaid. […] But, when Bcl-2 was cotransfected, a significant amount of transfected cells underwent apoptosis. For example, approximately 4% of cells transfected with either TR3/ΔDBD or Bcl-2 were apoptotic, compared to 35% of cell transfected with both. […]
To characterize the pro-apoptotic mechanism of Bcl-2 in the setting of TR3-induced apoptosis, various TR3 mutants and Bcl-2 mutants were co-expressed in HEK293T cells. […] Cells displaying nuclear condensation or fragmentation were scored. […]

5′-CAG UCC AGC CAU GCU CCU dTdT (CAGUCCAGCCAUGCUCCUTT; siRNA; sugars from the 5' end r18 d2, backbone not given here) [TR3 siRNA, reference compound]
TPA/ionomycin-induced apoptosis of PBLs [1]: partially inhibited

O=C(O)/C=C/c1ccc(-c2ccc(O)c(C34CC5CC(CC(C5)C3)C4)c2)c(Cl)c1 [3-Cl-AHPC]
apoptosis (H460 lung cancer cells): extensive apoptosis | TR3 expression, mitochondrial targeting and apoptosis (H460 lung cancer cells; 10^−6 M for 3 hours): potently induces TR3 expression, mitochondrial targeting and apoptosis | apoptosis (MGC80-3 cells): resulted in apoptosis | endogenous TR3 localization [2]: targeted mitochondria | co-immunoprecipitation of TR3 with anti-Bcl-2 antibody (TR3/Bcl-2 interaction): demonstrated co-immunoprecipitation of TR3

TCTP: human Translationally-Controlled Tumor Protein
subcellular localization with Bcl-XL (cos-7 cells [3]): recruits TCTP from cytosolic location to the mitochondria | interaction with Bcl-XL (Bcl-XL): interacts with Bcl-XL | apoptosis (cos-7 cells [4]; expressed together with Bcl-XL versus without Bcl-XL, 48 hours): More apoptosis | apoptosis (cos-7 cells [4]; over-expressed in cells): induces apoptosis

CN1CC=C(c2ccccc2)CC1 [MPTP, 1-methyl-4-phenyl-1,2,3,6-tetrahydropyridine]
endogenous TR3 localization [5]: found exclusively in the cytoplasm and colocalized with mitochondria

Bcl-2: Bcl-2 expression vector transfected into cells
apoptotic cells (293T cells): approximately 4%
